Measurements as given in ChEMBL document CHEMBL1156829 (Proc Natl Acad Sci U S A, 2008).

Assays:
Plasmodium falciparum [1] = experiment: NOVARTIS: Inhibition of Plasmodium falciparum 3D7 (drug-susceptible) proliferation in erythrocyte-based infection assay; type: functional, organism-based; settings: Plasmodium falciparum, 3D7
[2] = NOVARTIS: Cytotoxicity against human hepatocellular carcinoma cell line (Huh7); type: toxicity, cell-based, Huh-7; settings: Huh7 cells (hepatocellular carcinoma cell line)
Plasmodium falciparum [3] = experiment: NOVARTIS: Inhibition of Plasmodium falciparum W2 (drug-resistant) proliferation in erythrocyte-based infection assay; type: functional, organism-based; settings: Plasmodium falciparum, W2; read-out: EC50

Q: With CC(=O)c1cc(CN2CCC(C(=O)Nc3ccc(-n4nc(C)cc4C)cc3)CC2)cs1 as the molecule, how does the EC50 (Plasmodium falciparum [1]) read?
A: 969 nM

Q: And the CC50 [2]?
A: > 100000 nM

Q: What about the EC50 (Plasmodium falciparum [3]) of the same molecule?
A: 665 nM

Q: With Cc1cc(Nc2ccc(C)c(C)c2)n2cnnc2n1 as the molecule, how does the EC50 (Plasmodium falciparum [1]) read?
A: 242 nM

Q: What about the CC50 [2] of the same molecule?
A: > 73900 nM

Q: And the EC50 (Plasmodium falciparum [3])?
A: 590 nM

Q: What does the source list for Cc1ccc(-c2c3c(nc4sc(C(=O)Nc5cccc(C)c5)c(N)c24)CCC3)cc1?
A: EC50 (Plasmodium falciparum [1]): 1010 nM; CC50 [2]: > 100000 nM; EC50 (Plasmodium falciparum [3]): 82.7 nM

Q: With C/C(=C\c1csc(C)n1)[C@@H]1C[C@@H]2O[C@]2(C)CCC[C@H](C)[C@H](O)[C@@H](C)C(=O)C(C)(C)[C@@H](O)CC(=O)O1 [PATUPILONE] as the molecule, how does the EC50 (Plasmodium falciparum [1]) read?
A: 4.09 nM

Q: What about the CC50 [2] of the same molecule?
A: > 6250 nM

Q: What about the EC50 (Plasmodium falciparum [3]) of the same molecule?
A: > 1250 nM

Q: Which EC50 (Plasmodium falciparum [1]) does the source give for Cc1nc2ccccc2c(O)c1CC=C(Cl)Cl here?
A: 498 nM

Q: What about the CC50 [2] of the same molecule?
A: > 100000 nM

Q: What about the EC50 (Plasmodium falciparum [3]) of the same molecule?
A: 514 nM

Q: For CCC(=O)N1CCc2cc(Br)cc(S(=O)(=O)N3CC(C)CC(C)C3)c21 (configuration not stated), which EC50 (Plasmodium falciparum [1]) is on record?
A: 1970 nM

Q: What about the CC50 [2] of the same molecule?
A: > 100000 nM

Q: And the EC50 (Plasmodium falciparum [3])?
A: 1160 nM

Q: What does the source list for Cc1ccc(C(=O)NC2CCN(S(=O)(=O)c3c(C)cc(C)cc3C)CC2)cc1?
A: EC50 (Plasmodium falciparum [1]): 1440 nM; CC50 [2]: > 100000 nM; EC50 (Plasmodium falciparum [3]): 472 nM

Q: Which EC50 (Plasmodium falciparum [1]) does the source give for Cc1cccc(NC(=O)c2sc3nc4c(c(-c5cccs5)c3c2N)CCCCC4)c1 here?
A: > 12500 nM

Q: What about the CC50 [2] of the same molecule?
A: > 100000 nM

Q: And the EC50 (Plasmodium falciparum [3])?
A: 995 nM

Q: What does the source list for Cc1ccc2nc3c(c(NCCCN(C)C)c2c1)CCC3?
A: EC50 (Plasmodium falciparum [1]): 935 nM; CC50 [2]: > 10000 nM; EC50 (Plasmodium falciparum [3]): 1560 nM

Q: For CCCCCCN(C(=O)c1ccccc1)C(CC)c1nc2ccccc2c(=O)n1-c1ccccc1OC (configuration not stated), which EC50 (Plasmodium falciparum [1]) is on record?
A: 1050 nM

Q: What about the CC50 [2] of the same molecule?
A: > 7980 nM

Q: What about the EC50 (Plasmodium falciparum [3]) of the same molecule?
A: 526 nM

Q: Which EC50 (Plasmodium falciparum [1]) does the source give for Cc1sc2sc(-c3ccccc3)c(N)[n+]2c1C here?
A: 1050 nM

Q: What about the CC50 [2] of the same molecule?
A: > 100000 nM

Q: What about the EC50 (Plasmodium falciparum [3]) of the same molecule?
A: 1630 nM

Q: Which EC50 (Plasmodium falciparum [1]) does the source give for COC(=O)c1sc(-c2ccccc2)cc1NC(=O)c1ccc(S(=O)(=O)N2CCCCCC2)cc1 here?
A: > 1250 nM

Q: And the CC50 [2]?
A: > 14100 nM

Q: And the EC50 (Plasmodium falciparum [3])?
A: > 506 nM

Q: Which EC50 (Plasmodium falciparum [1]) does the source give for COc1nc(NC(=N)N)nc2ccc(C)cc12 here?
A: 880 nM

Q: What about the CC50 [2] of the same molecule?
A: 58000 nM

Q: And the EC50 (Plasmodium falciparum [3])?
A: 608 nM

Q: With CCCCN1C(=O)NC(c2ccc(NC(=O)c3cccs3)cc2)C(C(=O)OC(C)C)=C1C (configuration not stated) as the molecule, how does the EC50 (Plasmodium falciparum [1]) read?
A: 8760 nM

Q: And the CC50 [2]?
A: > 100000 nM

Q: And the EC50 (Plasmodium falciparum [3])?
A: 3170 nM

Q: Which results are given for CCc1ccc(C(Nc2cc(C)ccn2)c2ccc3cccnc3c2O)cc1 (configuration not stated)?
A: EC50 (Plasmodium falciparum [1]): 1470 nM; CC50 [2]: > 100000 nM; EC50 (Plasmodium falciparum [3]): 163 nM

Q: Which results are given for CCCCCCCC(=O)N(C)CCCNc1ccnc2cc(Cl)ccc12?
A: EC50 (Plasmodium falciparum [1]): 242 nM; CC50 [2]: > 9690 nM; EC50 (Plasmodium falciparum [3]): < 5.87 nM

Q: For CCCCc1ccc(C(=O)N(CC(=O)Nc2cc(C(C)(C)C)nn2-c2ccc(Cl)cc2)C(C)C)cc1, which EC50 (Plasmodium falciparum [1]) is on record?
A: > 1380 nM

Q: And the CC50 [2]?
A: > 10000 nM

Q: And the EC50 (Plasmodium falciparum [3])?
A: > 832 nM

Q: Which EC50 (Plasmodium falciparum [1]) does the source give for CCc1cc(C(=O)N2CCC[C@@H]3CN(C(=O)c4ccc(F)cc4)CC[C@@H]32)n(C)n1 here?
A: > 12500 nM

Q: And the CC50 [2]?
A: > 100000 nM

Q: What about the EC50 (Plasmodium falciparum [3]) of the same molecule?
A: 4670 nM

Q: With CCOc1ccc(C2=NC3(CCN(C(C)C)CC3)NC(c3cc(Cl)ccc3O)C2)cc1 (configuration not stated) as the molecule, how does the EC50 (Plasmodium falciparum [1]) read?
A: 7180 nM

Q: And the CC50 [2]?
A: 59900 nM

Q: What about the EC50 (Plasmodium falciparum [3]) of the same molecule?
A: 5480 nM

Q: With Cc1cc(C)c2c(c1)OCN(Cc1ccccc1Cl)C2 as the molecule, how does the EC50 (Plasmodium falciparum [1]) read?
A: 192 nM

Q: And the CC50 [2]?
A: > 100000 nM

Q: And the EC50 (Plasmodium falciparum [3])?
A: 300 nM

Q: Which results are given for C=C[C@H]1CN2CC[C@H]1C[C@H]2[C@H](OC(=O)CC)c1ccnc2ccccc12?
A: EC50 (Plasmodium falciparum [1]): 364 nM; CC50 [2]: > 10000 nM; EC50 (Plasmodium falciparum [3]): 166 nM

Q: Which results are given for CC(C)CCN(CCC(C)C)CC(O)Cn1c2ccc(Br)cc2c2cc(Br)ccc21 (configuration not stated)?
A: EC50 (Plasmodium falciparum [1]): 1490 nM; CC50 [2]: > 100000 nM; EC50 (Plasmodium falciparum [3]): 309 nM

Q: For CCc1nc2nc(C)cc(Nc3ccc(C)c(F)c3)n2n1, which EC50 (Plasmodium falciparum [1]) is on record?
A: 248 nM

Q: What about the CC50 [2] of the same molecule?
A: > 100000 nM

Q: And the EC50 (Plasmodium falciparum [3])?
A: 140 nM

Q: What does the source list for O=C(c1ccncc1)N1N=C(c2c(-c3ccccc3)c3cc(Br)ccc3[nH]c2=O)CC1c1ccccc1 (configuration not stated)?
A: EC50 (Plasmodium falciparum [1]): 144 nM; CC50 [2]: 8700 nM; EC50 (Plasmodium falciparum [3]): 1540 nM

Q: Which results are given for COc1ccccc1/C=C\CN(C(=O)c1ccc(C)cc1)C(c1ccccc1)c1ccccc1?
A: EC50 (Plasmodium falciparum [1]): 1120 nM; CC50 [2]: > 4360 nM; EC50 (Plasmodium falciparum [3]): > 1350 nM

Q: With CCOC(=O)c1ccc2c(c1)[C@@H]1C=CC[C@@H]1[C@H](c1cccc(OC)c1OC)N2 as the molecule, how does the EC50 (Plasmodium falciparum [1]) read?
A: 471 nM

Q: What about the CC50 [2] of the same molecule?
A: > 100000 nM

Q: And the EC50 (Plasmodium falciparum [3])?
A: 31.8 nM

Q: Which EC50 (Plasmodium falciparum [1]) does the source give for COc1cc(-c2cc(C)c3c(OC)ccc(OC)c3n2)cc2c1OCCN(C(=O)CCn1nc(C)cc1C)C2 here?
A: 2710 nM

Q: And the CC50 [2]?
A: > 100000 nM

Q: And the EC50 (Plasmodium falciparum [3])?
A: 913 nM

Q: With CCOC(=O)c1nnn(-c2nonc2N)c1-c1ccc(Br)cc1 as the molecule, how does the EC50 (Plasmodium falciparum [1]) read?
A: 287 nM

Q: And the CC50 [2]?
A: > 100000 nM

Q: And the EC50 (Plasmodium falciparum [3])?
A: 230 nM

Q: Which EC50 (Plasmodium falciparum [1]) does the source give for COc1cc(CN(C)c2ccc3nc(N)nc(N)c3c2)cc(OC)c1OC here?
A: 7.31 nM

Q: What about the CC50 [2] of the same molecule?
A: > 10000 nM

Q: And the EC50 (Plasmodium falciparum [3])?
A: 1190 nM

Q: With COc1cccc(C2(NC(=O)CCn3ccnc3-c3ccccc3)CCCC2)c1 as the molecule, how does the EC50 (Plasmodium falciparum [1]) read?
A: > 1250 nM

Q: And the CC50 [2]?
A: > 10000 nM

Q: What about the EC50 (Plasmodium falciparum [3]) of the same molecule?
A: 1780 nM

Q: What does the source list for Cc1ccc(C2CC(C(F)(F)F)n3ncc(C(=O)Nc4ccc(OC(F)(F)F)cc4)c3N2)cc1 (configuration not stated)?
A: EC50 (Plasmodium falciparum [1]): 282 nM; CC50 [2]: > 100000 nM; EC50 (Plasmodium falciparum [3]): 293 nM

Q: Which EC50 (Plasmodium falciparum [1]) does the source give for c1ccc(-c2nn(-c3ccccc3)[n+](-c3cccc4ccccc34)n2)cc1 here?
A: > 417 nM

Q: And the CC50 [2]?
A: > 10000 nM

Q: And the EC50 (Plasmodium falciparum [3])?
A: 131 nM

Q: For CN(CCCNc1ccnc2cc(Cl)ccc12)C(=O)c1ccc2c(c1)OCO2, which EC50 (Plasmodium falciparum [1]) is on record?
A: 249 nM

Q: What about the CC50 [2] of the same molecule?
A: > 10000 nM

Q: And the EC50 (Plasmodium falciparum [3])?
A: 214 nM

Q: For CCCc1nc2ccc(NC(=O)c3ccco3)cc2c(=O)n1Cc1ccc(-c2ccccc2)cc1, which EC50 (Plasmodium falciparum [1]) is on record?
A: 262 nM

Q: And the CC50 [2]?
A: > 100000 nM

Q: What about the EC50 (Plasmodium falciparum [3]) of the same molecule?
A: 422 nM
